This note sets out measurements from patent US9617264B2, “2,7-diazaspiro[3.5]nonane compounds” (REMYND NV, priority 2014, dated 2017).

Structures are written as SMILES.

This assay relates to M17_3SYN cells. Briefly: Paraquat-induced cytotoxicity (LDH) in α-synuclein over-expressing M17_3SYN neuroblastoma cells. The conditions noted are these: Homo sapiens, Neuroblastoma cell, 48 h, 6 mM Paraquat, 2 days, LDH toxicity inhibition, read-out: SYN EC50. Type of assay: cell-based. The text has this: A α-synuclein expression plasmid was constructed by subcloning the NcoI/XhoI fragment from 212T-SYN(WT) (Griffioen et al., Biochem Biophys Acta (2006) 1762(3):312-318) containing the cDNA of human wild type α-synuclein correspondingly into a standard mammalian expression vector pcDNA3.1 resulting in plasmid pcDNA3.1-SYNwt. Plasmids pcDNA3.1 and pcDNA3.1-SYNwt were transfected into human neuroblastoma cells (BE-M17; ATCC No. CRL-2267™) using lipofectamine reagent and subsequently, independent clonal cell lines with the plasmids stably integrated into the genome were selected by antibiotic resistance selection (Geneticin (G418)), resulting in cell lines M17.pcDNA3 and M17_3SYN. Overexpression of α-synuclein in the M17_3SYN cell line was confirmed by Western blot analysis.
Due to the high levels of α-synuclein, M17_3SYN cells were sensitive to paraquat, a well-known risk factor Parkinson's disease and of synuclein-dependent neuronal degeneration. Cytotoxicity of cells was measured by quantification of lactate dehydrogenase (LDH) levels. In dead cells, LDH leaked out of the cells into the medium due to a loss of plasma-membrane integrity.
Three days preceding the experiment, primary pre-cultures of M17.pcDNA3 (as possible control) and M17_3SYN cells were prepared, starting from a stock culture, at a density of 20.000-40.000 cells/cm2 in culture medium (Opti-MEM® Reduced Serum Medium with Phenol Red (Invitrogen, Cat. 31985-047) supplemented with 10% FCS, 1 mM sodium pyruvate, 1×NEAA, 500 μg/ml G418 and 0.5× antibiotic/antimycotic (ABAM)). 3 days later these primary pre-cultures were used as a starting point to make secondary pre-cultures at a density of 50.000-100.000 cells/cm^2. At the day of the experiment these secondary precultures were diluted to ˜0.5·10^6 cells/ml in detection medium (Opti-MEM® Reduced-Serum Medium without Phenol Red (Invitrogen, Cat. 11085-021) supplemented with 10% FCS, 1 mM sodium pyruvate, 1×NEAA, 500 μg/ml G418 and 0.5×ABAM) and 60 μL of this suspension was dispensed per well into a 96-well microtiter plate. After 3 hours of incubation at 37° C./5% CO2 an equal volume of detection medium containing a final concentration of 6 mM Paraquat was added and subsequently incubated for 2 days at 37° C./5% CO2. Then LDH activity was determined using the Promega Cytotox 96 Non-Radioactive cytotoxicity assay (Promega, Cat. G1780), according to the manufacturer's instructions. Cytotoxicity was defined as the ratio of LDH relative to the total LDH in the cells and supernatant.
The assay described above using the M17_3SYN cell line allowed screening compounds for their ability to decrease cytotoxicity in PQ-challenged cells. Compounds of the invention were tested for their ability to decrease toxicity at different concentrations, ranging from low non-effective concentrations to high effective concentrations. Afterwards, a dose-dependent inhibition curve was used to calculate the EC50. A compound was considered to be active in this test when it inhibited toxicity by more than 20% relative to untreated M17_3SYN cells at a concentration of […] or lower.
The EC50 is the concentration giving half of the maximal effect. On to `COc1ccc(C)cc1S(=O)(=O)N1CCC2(CC1)CN(c1nc(Cc3ccc(F)cc3)ns1)C2` [Cmpd062, 3-(4-Fluorobenzyl)-5-(7-((2-methoxy-5-methylphenyl)sulfonyl)-2,7-diazaspiro[3.5]nonan-2-yl)-1,2,4-thiadiazole], for which the half-maximal effective concentration (EC50) is 342 nM.

Regarding `COc1ccc(OC)c(S(=O)(=O)N2CCC3(CC2)CN(c2nc(Cc4ccc(F)cc4)ns2)C3)c1` [Cmpd072, 5-(7-((2,5-Dimethoxyphenyl)sulfonyl)-2,7-diazaspiro[3.5]nonan-2-yl)-3-(4-fluorobenzyl)-1,2,4-thiadiazole], the EC50 came out at 212 nM.

Consider `O=S(=O)(c1cc(F)ccc1F)N1CCC2(CC1)CN(c1nc(Cc3ccc(F)cc3)ns1)C2` [Cmpd073, 5-(7-((2,5-Difluorophenyl)sulfonyl)-2,7-diazaspiro[3.5]nonan-2-yl)-3-(4-fluorobenzyl)-1,2,4-thiadiazole], for which the EC50 is 217 nM.

As to `COc1ccc(S(=O)(=O)N2CCC3(CC2)CN(C(=O)C(C)(C)c2cccc(OC)c2)C3)cc1` [Cmpd016, 2-(3-Methoxyphenyl)-1-(7-((4-methoxyphenyl)sulfonyl)-2,7-diazaspiro[3.5]nonan-2-yl)-2-methylpropan-1-one], the EC50 amounted to 29.3 nM.

As for `COc1ccc(S(=O)(=O)N2CCC3(CC2)CN(c2nc(Cc4ccc(Cl)cc4)ns2)C3)cc1` [Cmpd032, 3-(4-Chlorobenzyl)-5-(7-((4-methoxyphenyl)sulfonyl)-2,7-diazaspiro[3.5]nonan-2-yl)-1,2,4-thiadiazole], the EC50 amounted to 170 nM.

Regarding `COc1ccccc1S(=O)(=O)N1CCC2(CC1)CN(c1nc(Cc3ccc(F)cc3)ns1)C2` [Cmpd080, 3-(4-Fluorobenzyl)-5-(7-((2-methoxyphenyl)sulfonyl)-2,7-diazaspiro[3.5]nonan-2-yl)-1,2,4-thiadiazole], the EC50 amounted to 501 nM.

Turning to `COc1ccc(S(=O)(=O)N2CCC3(CC2)CN(C(=O)C(C)(C)c2ccccc2)C3)cc1` [Cmpd013, 1-(7-((4-Methoxyphenyl)sulfonyl)-2,7-diazaspiro[3.5]nonan-2-yl)-2-methyl-2-phenylpropan-1-one], the EC50 stood at 44.4 nM.

For `CCOc1ccc(S(=O)(=O)N2CCC3(CC2)CN(S(=O)(=O)c2ccc(OC)cc2)C3)cc1` [Cmpd046, 7-((4-Ethoxyphenyl)sulfonyl)-2-((4-methoxyphenyl)sulfonyl)-2,7-diazaspiro[3.5]nonane], the EC50 was 3.3 nM.

With `COc1ccc(F)cc1S(=O)(=O)N1CCC2(CC1)CN(c1nc(Cc3ccc(F)cc3)ns1)C2` [Cmpd086, 5-(7-((5-Fluoro-2-methoxyphenyl)sulfonyl)-2,7-diazaspiro[3.5]nonan-2-yl)-3-(4-fluorobenzyl)-1,2,4-thiadiazole], the EC50 was determined as 300 nM.

Consider `O=S(=O)(c1ccc(OC(F)F)cc1)N1CCC2(CC1)CN(c1nc3ccc(Cl)cc3s1)C2` [Cmpd054, 6-Chloro-2-(7-((4-(difluoromethoxy)phenyl)sulfonyl)-2,7-diazaspiro[3.5]nonan-2-yl)benzo[d]thiazole], for which the EC50 was found to be 406 nM.

`O=S(=O)(c1ccc(OC(F)F)cc1)N1CCC2(CC1)CN(c1nc(Cc3ccc(F)cc3)ns1)C2` [Cmpd085, 5-(7-((4-(Difluoromethoxy)phenyl)sulfonyl)-2,7-diazaspiro[3.5]nonan-2-yl)-3-(4-fluorobenzyl)-1,2,4-thiadiazole]: the EC50 worked out at 541 nM.

For the compound `Cc1ccc(S(=O)(=O)N2CCC3(CC2)CN(c2nc(Cc4ccc(F)cc4)ns2)C3)s1` [Cmpd095, 3-(4-Fluorobenzyl)-5-(7-((5-methylthiophen-2-yl)sulfonyl)-2,7-diazaspiro[3.5]nonan-2-yl)-1,2,4-thiadiazole], the 50% effective concentration (EC50) was found to be 377 nM.

Take `O=S(=O)(c1c(F)cccc1F)N1CCC2(CC1)CN(c1nc(Cc3ccc(F)cc3)ns1)C2` [Cmpd074, 5-(7-((2,6-Difluorophenyl)sulfonyl)-2,7-diazaspiro[3.5]nonan-2-yl)-3-(4-fluorobenzyl)-1,2,4-thiadiazole]: the EC50 worked out at 260 nM.

Regarding `COc1ccc(S(=O)(=O)N2CCC3(CC2)CN(c2nc(Cc4cccc(C(F)(F)F)c4)ns2)C3)cc1` [Cmpd036, 5-(7-((4-Methoxyphenyl)sulfonyl)-2,7-diazaspiro[3.5]nonan-2-yl)-3-(3-(trifluoromethyl)benzyl)-1,2,4-thiadiazole], the EC50 came to 499 nM.

`COc1ccc(S(=O)(=O)N2CCC3(CC2)CN(c2nc(Cc4ccc(F)cc4)ns2)C3)cc1OC` [Cmpd061, 5-(7-((3,4-Dimethoxyphenyl)sulfonyl)-2,7-diazaspiro[3.5]nonan-2-yl)-3-(4-fluorobenzyl)-1,2,4-thiadiazole]: the EC50 is 320 nM.

On to `O=S(=O)(CC1CCCCC1)N1CCC2(CC1)CN(c1nc(Cc3ccc(F)cc3)ns1)C2` [Cmpd097, 5-(7-((Cyclohexylmethyl)sulfonyl)-2,7-diazaspiro[3.5]nonan-2-yl)-3-(4-fluorobenzyl)-1,2,4-thiadiazole], for which the EC50 worked out at 190 nM.

As for `Cc1cccc(S(=O)(=O)N2CCC3(CC2)CN(c2nc(Cc4ccc(F)cc4)ns2)C3)c1` [Cmpd066, 3-(4-Fluorobenzyl)-5-(7-(m-tolylsulfonyl)-2,7-diazaspiro[3.5]nonan-2-yl)-1,2,4-thiadiazole], the EC50 was 399 nM.

Consider `COc1ccc(S(=O)(=O)N2CCC3(CC2)CN(S(=O)(=O)c2ccc(F)cc2)C3)cc1` [Cmpd002, 2-((4-Fluorophenyl)sulfonyl)-7-((4-methoxyphenyl)sulfonyl)-2,7-diazaspiro[3.5]nonane], for which the EC50 turned out to be 25.8 nM.

As to `Cc1ccccc1S(=O)(=O)N1CCC2(CC1)CN(c1nc(Cc3ccc(F)cc3)ns1)C2` [Cmpd069, 3-(4-Fluorobenzyl)-5-(7-(o-tolylsulfonyl)-2,7-diazaspiro[3.5]nonan-2-yl)-1,2,4-thiadiazole], the EC50 came out at 182 nM.

For `COC(=O)c1cccc(S(=O)(=O)N2CCC3(CC2)CN(c2nc(Cc4ccc(F)cc4)ns2)C3)c1` [Cmpd084, Methyl 3-((2-(3-(4-fluorobenzyl)-1,2,4-thiadiazol-5-yl)-2,7-diazaspiro[3.5]nonan-7-yl)sulfonyl)benzoate], the EC50 turned out to be 383 nM.

For `CSc1ccc(S(=O)(=O)N2CCC3(CC2)CN(c2nc4ccc(Cl)cc4s2)C3)cc1` [Cmpd055, 6-Chloro-2-(7-((4-(methylthio)phenyl)sulfonyl)-2,7-diazaspiro[3.5]nonan-2-yl)benzo[d]thiazole], the concentration giving a half-maximal response (EC50) turned out to be 334 nM.

For `O=S(=O)(c1cccc(C(F)(F)F)c1)N1CCC2(CC1)CN(c1nc(Cc3ccc(F)cc3)ns1)C2` [Cmpd064, 3-(4-Fluorobenzyl)-5-(7-((3-(trifluoromethyl)phenyl)sulfonyl)-2,7-diazaspiro[3.5]nonan-2-yl)-1,2,4-thiadiazole], the EC50 was found to be 1070 nM.

As to `CSc1ccc(S(=O)(=O)N2CCC3(CC2)CN(c2nc(Cc4ccc(F)cc4)ns2)C3)cc1` [Cmpd041, 3-(4-Fluorobenzyl)-5-(7-((4-(methylthio)phenyl)sulfonyl)-2,7-diazaspiro[3.5]nonan-2-yl)-1,2,4-thiadiazole], the EC50 amounted to 177 nM.

Regarding `COc1cccc(S(=O)(=O)N2CCC3(CC2)CN(c2nc(Cc4ccc(F)cc4)ns2)C3)c1` [Cmpd076, 3-(4-Fluorobenzyl)-5-(7-((3-methoxyphenyl)sulfonyl)-2,7-diazaspiro[3.5]nonan-2-yl)-1,2,4-thiadiazole], the EC50 came out at 394 nM.

Turning to `COc1ccc(S(=O)(=O)N2CCC3(CC2)CN(c2nc(Cc4ccc(F)cc4)ns2)C3)cc1` [Cmpd057, 3-(4-Fluorobenzyl)-5-(7-((4-methoxyphenyl)sulfonyl)-2,7-diazaspiro[3.5]nonan-2-yl)-1,2,4-thiadiazole], the EC50 stood at 1.9 nM.

Consider `O=S(=O)(c1cc(F)cc(F)c1)N1CCC2(CC1)CN(c1nc(Cc3ccc(F)cc3)ns1)C2` [Cmpd083, 5-(7-((3,5-Difluorophenyl)sulfonyl)-2,7-diazaspiro[3.5]nonan-2-yl)-3-(4-fluorobenzyl)-1,2,4-thiadiazole], for which the EC50 came out at 375 nM.

As for `O=S(=O)(c1cccc(F)c1)N1CCC2(CC1)CN(c1nc(Cc3ccc(F)cc3)ns1)C2` [Cmpd071, 3-(4-Fluorobenzyl)-5-(7-((3-fluorophenyl)sulfonyl)-2,7-diazaspiro[3.5]nonan-2-yl)-1,2,4-thiadiazole], the EC50 was found to be 441 nM.
